Laboratory results: patent US20210369680A1, “METHODS OF TREATING DISEASES AND DISORDERS RESULTING FROM BETA CORONAVIRUS INFECTION” (T3D Therapeutics, Inc., priority 2020, published 2021)

Experiment: Fasted plasma metabolomics, clinical study
Type: in vivo, human
Procedure: Plasma Metabolomic Data from Clinical Study with Compound of Example 11
Fasted plasma metabolomics biomarkers were examined seeking evidence of systemic and brain pharmacological effects of Compound from Example 11. Over 800 chemically defined metabolites were examined for each dose group and a ratio EOT/BL) was calculated with an associated p value. Four dose groups were tested, 3, 10 30 and 90 mg. In general, the 30 and 90 mg dose groups had the largest impact on the metabolomics profile, each with 120 metabolites with p<0.05, while the 3 and 10 mg groups had smaller effects (40 and 61 with p<0.05 respectively). The metabolites were split into about 60 families. […] BCAAs are positively correlated with insulin resistance and diabetes. […] Some of these metabolites, such as isovaleryl and isobutyryl carnitine are part of a principal component shown to be positively associated with insulin resistance. The numbers in Table 7 are ratios of the dose group averages end of treatment (EOT) to baseline (BL). A green box indicates a statistically significant (p<0.05) decrease in metabolite. The light green indicates the p value is between 0.05 and 0.1. Statistical comparisons between doses and visits were conducted using Two-Way Repeated Measure ANOVA. Reference is made to Newgard CB, 2017. Metabolomics and Metabolic Disease, Where Do We Stand? Cell Metabolism 25: 43-56, which is incorporated by reference with regard to the example.

**Q.** Which results are given for `CCc1oc(-c2ccc(OC)cc2)nc1CCOc1ccc2c(c1)CC[C@H]2CC(=O)[O-].[Na+]` [Example 11, Sodium (S)-2-(5-(2-(5-ethyl-2-(4-methoxyphenyl)oxazol-4-yl)ethoxy)-2,3-dihydro-1H-inden-1-yl)acetate]?
**A.** 2-methylbutyrylcarnitine (C5), ratio EOT/BL (3 mg): 0.99; 3-hydroxybutyrlcarnite, ratio EOT/BL (3 mg): 1.2; Adrenoylcarnitine (C22:4)*, ratio EOT/BL (3 mg): 1.41; Arachidonoylcarnitine (C20:4), ratio EOT/BL (3 mg): 1.34; Arachidoylcarnitine (C20)*, ratio EOT/BL (3 mg): 1.11; Ceramide (d18:2/24:1, d18:1/24:2), ratio EOT/BL (3 mg): 1.08; Dihomo-linoleoylcarnitine (C20:2)*, ratio EOT/BL (3 mg): 1.24; Docosapentaenoylcarnitine (C22:5n3)*, ratio EOT/BL (3 mg): 1.39; Eicosenoylcarnitine (C20:1), ratio EOT/BL (3 mg): 1.22; Linolenoylcarnitine (C18:3)*, ratio EOT/BL (3 mg): 1.17; Linoleoylcarnitine (C18:2)*, ratio EOT/BL (3 mg): 1.22; Margaroylcarnitine*, ratio EOT/BL (3 mg): 1.03; Myristoycarnitine (C14), ratio EOT/BL (3 mg): 1.32; N-acetylleucine, ratio EOT/BL (3 mg): 0.98; N-palmitoyl-sphingosince (d18:1/16:0), ratio EOT/BL (3 mg): 1.06; N-stearoyl-sphinogosince (d18:1/18:0), ratio EOT/BL (3 mg): 1.05; Oleoylcarnitine (C18:1), ratio EOT/BL (3 mg): 1.34; Palmitoleoylcarnitine (C16:1)*, ratio EOT/BL (3 mg): 1.44; Palmitoylcaritine (C16), ratio EOT/BL (3 mg): 1.25; Stearoylcarnitine (C18), ratio EOT/BL (3 mg): 1.11; acetylcarnitine (C2), ratio EOT/BL (3 mg): 1.14; ceramide (d16:1/24:1, d18:1/22:1), ratio EOT/BL (3 mg): 1.13; ceramide (d18:1/14:0, d16:1/16:0), ratio EOT/BL (3 mg): 1.1; ceramide (d18:1/17:0, d17:1/18:0), ratio EOT/BL (3 mg): 1.03; ceramide (d18:1/20:0, d16:1/22:0 d20:1/18:0), ratio EOT/BL (3 mg): 1.12; isobutyrylcarnitine (C4), ratio EOT/BL (3 mg): 0.95; isoleucine, ratio EOT/BL (3 mg): 0.93; isovalerylcarnitine (C5), ratio EOT/BL (3 mg): 1.11; laurylcarnitine (C12), ratio EOT/BL (3 mg): 1.4; leucine, ratio EOT/BL (3 mg): 0.95; number of metabolites with p<0.05 (3 mg): 40; octanoylcarnitine (C8), ratio EOT/BL (3 mg): 1.33; valine, ratio EOT/BL (3 mg): 0.93; 2-methylbutyrylcarnitine (C5), ratio EOT/BL (10 mg): 1.02; 3-hydroxybutyrlcarnite, ratio EOT/BL (10 mg): 1.19; Adrenoylcarnitine (C22:4)*, ratio EOT/BL (10 mg): 1.23; Arachidonoylcarnitine (C20:4), ratio EOT/BL (10 mg): 1.23; Arachidoylcarnitine (C20)*, ratio EOT/BL (10 mg): 1.09; Ceramide (d18:2/24:1, d18:1/24:2), ratio EOT/BL (10 mg): 0.96; Dihomo-linoleoylcarnitine (C20:2)*, ratio EOT/BL (10 mg): 1.24; Docosapentaenoylcarnitine (C22:5n3)*, ratio EOT/BL (10 mg): 1.18; Eicosenoylcarnitine (C20:1), ratio EOT/BL (10 mg): 1.03; Linolenoylcarnitine (C18:3)*, ratio EOT/BL (10 mg): 1.19; Linoleoylcarnitine (C18:2)*, ratio EOT/BL (10 mg): 1.21; Margaroylcarnitine*, ratio EOT/BL (10 mg): 1.15; Myristoycarnitine (C14), ratio EOT/BL (10 mg): 1.13; N-acetylleucine, ratio EOT/BL (10 mg): 1; N-palmitoyl-sphingosince (d18:1/16:0), ratio EOT/BL (10 mg): 1.02; N-stearoyl-sphinogosince (d18:1/18:0), ratio EOT/BL (10 mg): 0.98; Oleoylcarnitine (C18:1), ratio EOT/BL (10 mg): 1.1; Palmitoleoylcarnitine (C16:1)*, ratio EOT/BL (10 mg): 1.11; Palmitoylcaritine (C16), ratio EOT/BL (10 mg): 1.12; Stearoylcarnitine (C18), ratio EOT/BL (10 mg): 1.19; acetylcarnitine (C2), ratio EOT/BL (10 mg): 1.03; ceramide (d16:1/24:1, d18:1/22:1), ratio EOT/BL (10 mg): .095; ceramide (d18:1/14:0, d16:1/16:0), ratio EOT/BL (10 mg): 1.05; ceramide (d18:1/17:0, d17:1/18:0), ratio EOT/BL (10 mg): 1.12; ceramide (d18:1/20:0, d16:1/22:0 d20:1/18:0), ratio EOT/BL (10 mg): 1.05; isobutyrylcarnitine (C4), ratio EOT/BL (10 mg): 1.01; isoleucine, ratio EOT/BL (10 mg): 0.94; isovalerylcarnitine (C5), ratio EOT/BL (10 mg): 0.97; laurylcarnitine (C12), ratio EOT/BL (10 mg): 1.17; leucine, ratio EOT/BL (10 mg): 0.98; number of metabolites with p<0.05 (10 mg): 61; octanoylcarnitine (C8), ratio EOT/BL (10 mg): 1.21; valine, ratio EOT/BL (10 mg): 1.06; 2-methylbutyrylcarnitine (C5), ratio EOT/BL (30 mg): 0.96; 3-hydroxybutyrlcarnite, ratio EOT/BL (30 mg): 1.26; Adrenoylcarnitine (C22:4)*, ratio EOT/BL (30 mg): 1.44; Arachidonoylcarnitine (C20:4), ratio EOT/BL (30 mg): 1.34; Arachidoylcarnitine (C20)*, ratio EOT/BL (30 mg): 1.16; Ceramide (d18:2/24:1, d18:1/24:2), ratio EOT/BL (30 mg): 0.92; Dihomo-linoleoylcarnitine (C20:2)*, ratio EOT/BL (30 mg): 1.47; Docosapentaenoylcarnitine (C22:5n3)*, ratio EOT/BL (30 mg): 1.65; Eicosenoylcarnitine (C20:1), ratio EOT/BL (30 mg): 1.43; Linolenoylcarnitine (C18:3)*, ratio EOT/BL (30 mg): 1.35; Linoleoylcarnitine (C18:2)*, ratio EOT/BL (30 mg): 1.37; Margaroylcarnitine*, ratio EOT/BL (30 mg): 1.14; Myristoycarnitine (C14), ratio EOT/BL (30 mg): 1.29; N-acetylleucine, ratio EOT/BL (30 mg): 0.91; N-palmitoyl-sphingosince (d18:1/16:0), ratio EOT/BL (30 mg): 0.89; N-stearoyl-sphinogosince (d18:1/18:0), ratio EOT/BL (30 mg): 0.82; Oleoylcarnitine (C18:1), ratio EOT/BL (30 mg): 1.51; Palmitoleoylcarnitine (C16:1)*, ratio EOT/BL (30 mg): 1.66; Palmitoylcaritine (C16), ratio EOT/BL (30 mg): 1.29; Stearoylcarnitine (C18), ratio EOT/BL (30 mg): 1.24; acetylcarnitine (C2), ratio EOT/BL (30 mg): 1.19; ceramide (d16:1/24:1, d18:1/22:1), ratio EOT/BL (30 mg): 0.71; ceramide (d18:1/14:0, d16:1/16:0), ratio EOT/BL (30 mg): 0.86; ceramide (d18:1/17:0, d17:1/18:0), ratio EOT/BL (30 mg): 0.91; ceramide (d18:1/20:0, d16:1/22:0 d20:1/18:0), ratio EOT/BL (30 mg): 0.83; isobutyrylcarnitine (C4), ratio EOT/BL (30 mg): 0.77; isoleucine, ratio EOT/BL (30 mg): 0.96; isovalerylcarnitine (C5), ratio EOT/BL (30 mg): 0.99; laurylcarnitine (C12), ratio EOT/BL (30 mg): 1.35; leucine, ratio EOT/BL (30 mg): 1; number of metabolites with p<0.05 (30 mg): 120; octanoylcarnitine (C8), ratio EOT/BL (30 mg): 1.44; valine, ratio EOT/BL (30 mg): 0.96; 2-methylbutyrylcarnitine (C5), ratio EOT/BL (90 mg): 0.81; 3-hydroxybutyrlcarnite, ratio EOT/BL (90 mg): 1.53; Adrenoylcarnitine (C22:4)*, ratio EOT/BL (90 mg): 1.54; Arachidonoylcarnitine (C20:4), ratio EOT/BL (90 mg): 1.31; Arachidoylcarnitine (C20)*, ratio EOT/BL (90 mg): 1.17; Ceramide (d18:2/24:1, d18:1/24:2), ratio EOT/BL (90 mg): 0.99; Dihomo-linoleoylcarnitine (C20:2)*, ratio EOT/BL (90 mg): 1.54; Docosapentaenoylcarnitine (C22:5n3)*, ratio EOT/BL (90 mg): 1.45; Eicosenoylcarnitine (C20:1), ratio EOT/BL (90 mg): 1.61; Linolenoylcarnitine (C18:3)*, ratio EOT/BL (90 mg): 1.25; Linoleoylcarnitine (C18:2)*, ratio EOT/BL (90 mg): 1.22; Margaroylcarnitine*, ratio EOT/BL (90 mg): 1.21; Myristoycarnitine (C14), ratio EOT/BL (90 mg): 1.56; N-acetylleucine, ratio EOT/BL (90 mg): 0.82; N-palmitoyl-sphingosince (d18:1/16:0), ratio EOT/BL (90 mg): 0.89; N-stearoyl-sphinogosince (d18:1/18:0), ratio EOT/BL (90 mg): 0.82; Oleoylcarnitine (C18:1), ratio EOT/BL (90 mg): 1.46; Palmitoleoylcarnitine (C16:1)*, ratio EOT/BL (90 mg): 1.79; Palmitoylcaritine (C16), ratio EOT/BL (90 mg): 1.31; Stearoylcarnitine (C18), ratio EOT/BL (90 mg): 1.18; acetylcarnitine (C2), ratio EOT/BL (90 mg): 1.23; ceramide (d16:1/24:1, d18:1/22:1), ratio EOT/BL (90 mg): 0.84; ceramide (d18:1/14:0, d16:1/16:0), ratio EOT/BL (90 mg): 0.77; ceramide (d18:1/17:0, d17:1/18:0), ratio EOT/BL (90 mg): 0.84; ceramide (d18:1/20:0, d16:1/22:0 d20:1/18:0), ratio EOT/BL (90 mg): 0.84; isobutyrylcarnitine (C4), ratio EOT/BL (90 mg): 0.57; isoleucine, ratio EOT/BL (90 mg): 0.84; isovalerylcarnitine (C5), ratio EOT/BL (90 mg): 0.68; laurylcarnitine (C12), ratio EOT/BL (90 mg): 1.56; leucine, ratio EOT/BL (90 mg): 0.8; number of metabolites with p<0.05 (90 mg): 120; octanoylcarnitine (C8), ratio EOT/BL (90 mg): 1.58; valine, ratio EOT/BL (90 mg): 0.79
